Results as given in patent US8465912B2, “Methods for the identification of agents that inhibit mesenchymal-like tumor cells or their formation” (OSI Pharmaceuticals, LLC, priority 2009, dated 2013).

B1: OSM: Oncostatin M, commercial cytokine used at 100 ng/ml (protein, UniProt P13725 26-221, looked up)
Oncostatin-M: AAIGSCSKEYRVLLGQLQKQTDLMQDTSRLLDPYIRIQGLDVPKLREHCRERPGAFPSEETLRGLGRRGFLQTLNATLGCVLHRLADLEQRLPKAQDLERSGLNIEDLEKLQMARPNILGLRNNIYCMAQLLDNSDTAEPTKAGRGASQPPTPTPASDAFQRKLEGCRFLHGYHRFMHSVGRVFSKWGESPNRSRR

Assays:
Type in all cases: cell-based, human
H1650 cells [1] = assay: Pharmacological inhibition of ligand-induced EMT (Western blot, morphology); details: MEK inhibitor 1 1 μM, LY294002 10 μM, JAK inhibitor 1 0.25 μM
Procedure: Supernatents were micro-centrifuged at max speed, 4° C. for 10 minutes. […] SDS PAGE was run using a Bis-Tris gel system (Invitrogen NuPAGE) with MOPS buffer (Invitrogen NP0001), transferred onto nitrocellulose using the iBLOT system (Invitrogen) and blocked in PBS-T (0.1% Tween 20), 5% non-fat milk or BSA in guidance with primary Ab supplier requirements. […] Secondary HRP labeled antibodies used were: anti Rabbit IgG HRP (Amersham NA934) 1:5000 dilution; anti Mouse IgG HRP (Sigma A2304) 1:2000 dilution. Membranes were visualized using the Supersignal ELISA Femto Maximum Sensitivity Substrate (Pierce).
Cells were treated with inhibitor 30 minutes prior to ligand stimulation. Medium, inhibitor and ligand were refreshed on experimental day 3 to 4. Cells were photographed and lysed in RIPA buffer on day 7 for Western blotting.
To determine what signaling pathways are important for EMT in this model, cells were stimulated for 7 days with OSM, HGF+OSM or OSM+TGFβ in the presence of inhibitors to MEK, PI3K and JAK, since these pathways are established downstream effectors of these ligands. After 7 days, we photographed the cells to show morphology and harvested the cells to analyze markers by immunoblot (FIG. 6).

H1650 cells [2] = assay: Induction of EMT by growth factors and cytokines in 2D culture (immunoblot, morphology, confocal); details: H1650 2D; for E-cadherin localization by confocal microscopy: 7 days ligand, untreated cells show membrane E-cadherin; for Induction of EMT (E-cadherin, vimentin, morphology): 7 days, HGF, EGF, OSM 100 ng/ml, TGFβ1 10 ng/ml, TNFα 25 ng/ml
Procedure: (§1) The human cell line, H1650 was cultured in […] containing 10% FBS, 2 mM L-Glutamine, and 1 mM sodium pyruvate, at 37° C., 5% CO2. Growth factor and cytokine induced EMT was monitored over 7 days. Growth factor and cytokines were obtained from commercial sources and used as follows: HGF (Hepatocyte growth factor) at 100 ng/ml, EGF (Epidermal Growth Factor) at 100 ng/ml, OSM (Oncostatin M) at 100 ng/ml, TGFβ1 (Transforming growth factor, beta 1) at 10 ng/ml, and TNFα (Tumor necrosis factor alpha) at 25 ng/ml.
Cells were harvested by washing once with PBS, and lysing on ice for 10 minutes with scraping (using a Cell Lifter, Corning Inc. #3008) in ice cold RIPA buffer (Sigma R0278) containing Protease inhibitor (Sigma P8340), Phosphatase inhibitors (Sigma P2850, P5726) and 200 μM Sodium Vanadate. Supernatents were micro-centrifuged at max speed, 4° C. for 10 minutes. Protein content was quantitated using the BCA method (Pierce #23225) and samples were normalized to total protein in Laemli buffer and heated at 100° C. for 10 minutes. SDS PAGE was run using a Bis-Tris gel system (Invitrogen NuPAGE) with MOPS buffer (Invitrogen NP0001), transferred onto nitrocellulose using the iBLOT system (Invitrogen) and blocked in PBS-T (0.1% Tween 20), 5% non-fat milk or BSA in guidance with primary Ab supplier requirements. All primary antibodies were incubated overnight at 4° C. in PBS-T (0.1% Tween 20) in either 5% non-fat milk or BSA, diluted to the following working dilutions: anti E Cadherin (Santa Cruz #sc-21791) 1:500 dilution; anti Vimentin (BD Biosciences #550513) 1:2000 dilution;); 1:1000 dilution; anti β-Actin (Sigma, A5441) 1:10,000 dilution. Secondary HRP labeled antibodies used were: anti Rabbit IgG HRP (Amersham NA934) 1:5000 dilution; anti Mouse IgG HRP (Sigma A2304) 1:2000 dilution. Membranes were visualized using the Supersignal ELISA Femto Maximum Sensitivity Substrate (Pierce).
Cells were fixed in 4% paraformaldehyde (Electron Microscopy Sciences #15710)/PBS (Gibco#14190) for 10 minutes at room temperature, washed with PBS and permeabilized with 0.1% Triton X100 (Sigma P1379) in PBS for 10 minutes at room temp. Cells were blocked with 3% BSA/PBS for at least 15 minutes then incubated with primary antibody diluted in blocking buffer for a minimum of two hours at room temperature. Anti E-Cadherin was used at a 1:75 dilution and anti Vimentin (Millipore #AB5733) was used at a 1:2000 dilution. Cells were washed, incubated with fluorescently-labeled secondary antibodies for one hour, followed by a 5 minute TO-PRO3 nuclear counterstain (Invitrogen #T3605) at room temperature, washed and mounted on slides with Pro-Long Gold anti-fade reagent (Invitrogen #P36934). Secondary fluorescent antibodies used were: anti mouse 488 nm (Invitrogen #A11029) 1:600 dilution; anti chicken TRITC (Chemicon #AP194R) 1:50 dilution. Stained cells were captured on a Leica DMRXE microscope/SP2 scanner using Leica Confocal Software (LCS).
The ability of cell lines to undergo epithelial to mesenchymal transition (EMT) was investigated using different extracellular ligand drivers. A panel of NSCLC, pancreatic, and breast cancer cell lines were screened by treatment of cells for 7 days in presence of respective ligands, either singly or in combination. Initial screening determined the ability of the ligand to cause morphology change, to down-regulate the epithelial marker, E-cadherin or to up-regulate a mesenchymal marker such as vimentin. Potential EMT cell models should up-regulate a mesenchymal marker and display morphology change. More robust models would show a down-regulation of E-cadherin expression.

H1650 cells [3] = assay: Doubling time of ligand-treated H1650 cells; details: 7 days ligand, doubling time over following two weeks, versus untreated
Procedure: as §1
Cells were plated and treated with ligand for 7 days. On day 7, cells were counted and re-plated on 6 cm cell culture dishes. On days 3, 5, 7, 10 and 12, cells were trypsinized and counted to determine the total number of cells in the dish, in duplicate. Doubling time was calculated using the multiple time point method on the website www.doubling-time.com.

H1650 cells [4] = assay: qPCR of EMT gene changes in response to ligand treatment; details: 7 days ligand, qPCR normalized to GAPDH and untreated control
Procedure: as §1
Cells were plated and treated with ligand for 7 days. At the time of harvest, cells were trypsinized and snap frozen for later use. Total RNA was isolated using RNAqueous-4 PCR Kit (Ambion, AM1914). Samples were DNase treated using the Turbo DNA-Free kit (Ambion, AM1907) and reverse transcribed using Superscript III (Invitrogen, 18080-044) for qPCR analysis. Taqman primers and Locked-Nucleic Acid probes were designed using ProbeFinder software (Universal Probe library, Roche). For mRNA analysis, real time PCR was performed using the ABI 7900HT series PCR machine. Thermocycle conditions were as follows: 50° C. for 2 minutes, 95° C. for 10 minutes, 95° C. for 15 seconds, 50° C. for 10 seconds, 60° C. for 1 minute. Data was collected over 45 cycles and then normalized to GAPDH and further normalized to the untreated control sample.

Molecule	E-cadherin localization by confocal microscopy (H1650 cells [2])	Induction of EMT (E-cadherin, vimentin, morphology) (H1650 cells [2])	Change in doubling time (H1650 cells [3])	CDH1 gene change (H1650 cells [4])	CDH2 gene change (H1650 cells [4])	CLDN3 gene change (H1650 cells [4])	ERBB3 gene change (H1650 cells [4])	ITGB3 gene change (H1650 cells [4])	MTA3 gene change (H1650 cells [4])	OCLN gene change (H1650 cells [4])	PLAUR gene change (H1650 cells [4])	SNAI1 gene change (H1650 cells [4])	SNAI2 gene change (H1650 cells [4])	SPARC gene change (H1650 cells [4])	TJP3 gene change (H1650 cells [4])	TWIST1 gene change (H1650 cells [4])	VCAN gene change (H1650 cells [4])	VIM gene change (H1650 cells [4])	ZEB1 gene change (H1650 cells [4])	ZEB2 gene change (H1650 cells [4])	also measured
CC(C)(C)c1nc2c3cc[nH]c(=O)c3c3cc(F)ccc3c2[nH]1 [JAK inhibitor 1]																					Effect on HGF+OSM-induced EMT (H1650 cells [1]; 7 days HGF+OSM): partial; Effect on OSM+TGFβ-induced EMT (H1650 cells [1]; 7 days OSM+TGFβ): near complete block; Effect on OSM-induced EMT (H1650 cells [1]; 7 days OSM): near complete block; Effect on EMT in all three ligand models (OSM, HGF+OSM, OSM+TGFβ) (H1650 cells [1]; 7 days, immunoblot and morphology): blocked EMT to varying degrees
EGF: Epidermal Growth Factor, commercial protein ligand used at 100 ng/ml	absence of E-cadherin or mislocalization of E-cadherin to the cytoplasm	partial EMT																			
HGF: Hepatocyte growth factor, commercial protein ligand used at 100 ng/ml to induce EMT in H1650 cells	absence of E-cadherin or mislocalization of E-cadherin to the cytoplasm	partial EMT	modest decrease	NC (Fold changes less than 3 are reported as NC)	NC (Fold changes less than 3 are reported as NC)	NC (Fold changes less than 3 are reported as NC)	NC (Fold changes less than 3 are reported as NC)	NC (Fold changes less than 3 are reported as NC)	NC (Fold changes less than 3 are reported as NC)	NC (Fold changes less than 3 are reported as NC)	NC (Fold changes less than 3 are reported as NC)	NC (Fold changes less than 3 are reported as NC)	6.43 fold change	NC (Fold changes less than 3 are reported as NC)	NC (Fold changes less than 3 are reported as NC)	NC (Fold changes less than 3 are reported as NC)	6.71 fold change	4.92 fold change	NC (Fold changes less than 3 are reported as NC)	NC (Fold changes less than 3 are reported as NC)	ACTN1 gene change (H1650 cells [4]): NC (Fold changes less than 3 are reported as NC)
TGFβ: Transforming growth factor, beta 1, used at 10 ng/ml		do not stimulate EMT by themselves	no effect	NC (Fold changes less than 3 are reported as NC)	NC (Fold changes less than 3 are reported as NC)	NC (Fold changes less than 3 are reported as NC)	NC (Fold changes less than 3 are reported as NC)	NC (Fold changes less than 3 are reported as NC)	NC (Fold changes less than 3 are reported as NC)	NC (Fold changes less than 3 are reported as NC)	NC (Fold changes less than 3 are reported as NC)	NC (Fold changes less than 3 are reported as NC)	4.9 fold change	NC (Fold changes less than 3 are reported as NC)	NC (Fold changes less than 3 are reported as NC)	NC (Fold changes less than 3 are reported as NC)	5.04 fold change	3.99 fold change	NC (Fold changes less than 3 are reported as NC)	NC (Fold changes less than 3 are reported as NC)	
TNFα		do not stimulate EMT by themselves																			
B1		do not stimulate EMT by themselves	modest decrease	NC (Fold changes less than 3 are reported as NC)	NC (Fold changes less than 3 are reported as NC)	NC (Fold changes less than 3 are reported as NC)	NC (Fold changes less than 3 are reported as NC)	13.25 fold change	NC (Fold changes less than 3 are reported as NC)	NC (Fold changes less than 3 are reported as NC)	NC (Fold changes less than 3 are reported as NC)	NC (Fold changes less than 3 are reported as NC)	3.44 fold change	NC (Fold changes less than 3 are reported as NC)	NC (Fold changes less than 3 are reported as NC)	NC (Fold changes less than 3 are reported as NC)	3.88 fold change	4.18 fold change	3.15 fold change	4.43 fold change	ACTN1 gene change (H1650 cells [4]): NC (Fold changes less than 3 are reported as NC)
